The source of these data is patent US20240415819A1, “MACROCYCLIC COMPOUNDS AS PROTEASOME SUBUNIT BETA TYPE-5 INHIBITORS” (Lead Discovery Center GmbH, priority 2021, published 2024).

The target of test [1] is T1, β5 subunit of the human constitutive proteasome (CPS) (Homo sapiens, UniProt P28074).
T1 construct: purchased Boston Biochem E-360
Kind of test: β5 inhibition assay, human constitutive proteasome (Suc-LLVY-AMC). The following applies: IC50 class, Suc-LLVY-AMC substrate. It is filed as biochemical. The procedure: The enzymatic activity of the β5 subunit of the human constitutive proteasome (CPS) is analyzed. In another assay, which differs from the assay of the human constitutive proteasome only in using the human immunoproteasome (IPS) the enzymatic activity of the β5 subunit of the human immunoproteasome (IPS) is analyzed. […] Inhibition is indicated as IC50 [nM] (“-”=not measured).

Test [2] concerns A549 (human lung carcinoma cell line). Nature of the test: Glo assay of A549 cells (Table 3; ProteasomeGlo plating scheme). It is filed as cell-based. Particulars: Homo sapiens; A549 cells; read-out: PGLo A549. Put shortly:
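Cells plated in 384 wells; compound, DMSO, staurosporine transferred by ECHO; 105 min, 37° C., 5% CO2; Proteasome-Glo (Suc-LLVY-Glo) reagent added; dark 10-15 min; luminescence; IC50 nM.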

For the next test, the system named is hPMBC. Nature of the test: Chymotrypsin-like ProteasomeGlo assay in hPBMC. It is filed as cell-based. The following applies: Homo sapiens; read-out: Pglo hPBMC. From the text: Chymotrypsin-like ProteasomeGlo assay in the B-cells isolated from PBMC's following compound addition (IC50). • 1. PBMC's will be isolated from human blood followed by B-cell isolation from the PBMC's using the Miltenyi Isolation Kit. • 2. This experiment will use the Chymotrypsin-like ProteasomeGlo read-out to generate IC50's following compound treatment. • 3. Dilute all compounds 1:100 for the assay. • 4. […] Repeat the DMSO transfer with lane 12. • 5. Lane 12 should not be seeded with any cells. Only medium! • 6. For all steps, make sure the samples and reagents remain cool! • 7. While dealing with the buffy coats, be careful to not let any exposed skin to be in direct contact with the blood.
For the initial steps and to make processing the buffy coats easier, separately process the buffy coats. • a. Cut the tube attached to the buffy coats carefully using a clean, sterile and fresh scalpel. • b. Transfer the blood into 2 individual 50 ml falcons. • c. Add an equal volume of DPBS to the blood in the falcons. • d. Add ˜20 ml of lymphocyte separating medium to two 50 ml falcons. • e. Carefully pour 15-20 ml of the blood+DPBS mix from step c. onto the lymphocyte separating medium from step d. • f. Centrifuge the falcons with the lymphocyte separating medium+blood mix at 800×g for 15 minutes using a swing-out rotor. • g. Following centrifugation, carefully remove the falcons from the centrifuge. • h. The following layers will be observed: • i. Aspirate the plasma layer off carefully without disturbing the different layers. • j. Remove the cell pellet using a pipette into two fresh 50 ml falcons. • k. Fill the falcons with the cells up to 50 ml with DPBS. • l. Centrifuge the falcons at 250×g for 10 minutes using a swing-out rotor (Brake-off). • m. Aspirate the complete DPBS off the cells without disturbing the cell pellet at the bottom of the falcon. • n. Re-suspend the cell pellet in 10 ml of 1×RBC lysis buffer. • o. Incubate the falcons at room temperature in the dark for 10 minutes. • p. After RBC lysis, centrifuge the tubes at 250×g for 10 minutes using a swing-out rotor (brake-off). • (*Note: If the cell pellet is still red or light red, repeat steps n. to p.!) • q. Re-suspend the cell pellet in DPBS up to 50 ml in the falcon. • r. Centrifuge the falcons at 250×g for 10 minutes using a swing-out rotor (Brake-off). • s. Aspirate the DPBS off the cells without disturbing the cell pellet at the bottom of the falcon. • t. Repeat the wash step as described in steps q. to s. 2× times more (total number of washes is 3×). • u. Aspirate the DPBS completely off the cell pellet after the last wash without disturbing the cell pellet. • v. Re-suspend the cell pellet in 20 ml of PBMC cell medium. • w.
• a. Remove the plates with cells from the incubator. • b. Take all the plates including the compound plate, intermediate plate and Staurosporine plate to the ECHO. • c. Click on “Open” in the ECHO software and select the protocol “QLI5_25ul_30 uM-Grenier”. • d. Follow the on-screen prompts and instructions once you click “Start” to insert the compound plate, intermediate plate and destination plates. • e. Change the final number of destination plates on the program. • f. Follow the on-screen prompts and instructions once you click “Start” to load the Staurosporine and destination plates. • g. Once all the compounds, DMSO and Staurosporine have been transferred, place the destination plates in a wet tissue box. • h. Place the destination plates back into the incubator and incubate at 37° C., 5% CO2 for 105 minutes. • i. Re-seal all the compound+Stauro diamond and intermediate plates and store in the dark. Chymotrypsin like ProteasomeGlo Assay • 1. Thaw the components of the ProteasomeGlo assay at room temperature including the ProteasomeGlo Buffer, the lyophilized Luciferin Detection Reagent and the Suc-LLVY-Glo Substrate. • 2. […]

Some results are limits rather than exact numbers.

As to `Cc1ccc2cc1CNC(=O)[C@H](CCc1ccccc1)NC(=O)[C@@H](NC(=O)Cc1csc(N)n1)CC(=O)N1CCCC(CCO2)C1` (stereo partly drawn) [Compound 302, 2-(2-aminothiazol-4-yl)-N-((9S,12S)-5^4-methyl-8,11,14-trioxo-9-phenethyl-4-oxa-7,10-diaza-1(3,1)-piperidina-5(1,3)-benzenacyclotetradecaphane-12-yl)acetamide], the IC50 (in test [1]; in test [2]; in the test on hPMBC) was below 100 nM each time.

Consider `Cc1ccc2cc1CNC(=O)[C@H](CCc1ccccc1)NC(=O)[C@@H](NC(=O)C(C)c1ccc(N)cc1)CC(=O)N1CCCC(CCO2)C1` (stereo partly drawn) [Compound 309, 2-(4-aminophenyl)-N-((9S,12S)-5^4-methyl-8,11,14-trioxo-9-phenethyl-4-oxa-7,10-diaza-1(3,1)-piperidina-5(1,3)-benzenacyclotetradecaphane-12-yl)propanamide], for which the IC50 (in test [1]; in test [2]; in the test on hPMBC) was below 100 nM in each case.

As for `Cc1ccc2cc1CNC(=O)[C@H](CCc1ccccc1)NC(=O)[C@@H](NC(=O)Cc1nnc(N)s1)CC(=O)N1CCCC(CCO2)C1` (stereo partly drawn) [Compound 310, 2-(5-amino-1,3,4-thiadiazol-2-yl)-N-((9S,12S)-54-methyl-8,11,14-trioxo-9-phenethyl-4-oxa-7,10-diaza-1(3,1)-piperidina-5(1,3)-benzenacyclotetradecaphane-12-yl)acetamide], the IC50 (in test [1]; in test [2]; in the test on hPMBC) was below 100 nM throughout.

`Cc1ccc2cc1CNC(=O)[C@H](CCc1ccccc1)NC(=O)[C@@H](NC(=O)Cc1cnc(N)s1)CC(=O)N1CCCC(CCO2)C1` (stereo partly drawn) [Compound 311, 2-(2-aminothiazol-5-yl)-N-((9S,12S)-5^4-methyl-8,11,14-trioxo-9-phenethyl-4-oxa-7,10-diaza-1(3,1)-piperidina-5(1,3)-benzenacyclotetradecaphane-12-yl)acetamide]: the IC50 (in test [1]; in test [2]; in the test with hPMBC) was below 100 nM throughout.

As for `Cc1ccc2cc1CNC(=O)[C@H](CCc1ccccc1)NC(=O)[C@@H](NC(=O)OCc1ccccc1)CC(=O)N1CC(CCO2)CC2CCCCC21` (stereo partly drawn) [Compound 314, benzyl ((9S,12S)-5^4-methyl-8,11,14-trioxo-9-phenethyl-11,12,13,14,14a,15,16,17,18,18a-decahydro-4-oxa-7,10-diaza-1(3,1)-quinolina-5(1,3)-benzenacyclotetradecaphane-12-yl)carbamate], the IC50 (in test [1]; in test [2]; in the test with hPMBC) was below 100 nM throughout.

For `Cc1ccc2cc1CNC(=O)[C@H](CCc1ccccc1)NC(=O)[C@@H](NC(=O)Cc1cc(Cl)c(N)c(Cl)c1)CC(=O)N1CCCC(CCO2)C1` (stereo partly drawn) [Compound 320, 2-(4-amino-3,5-dichlorophenyl)-N-((9S,12S)-5^4-methyl-8,11,14-trioxo-9-phenethyl-4-oxa-7,10-diaza-1(3,1)-piperidina-5(1,3)-benzenacyclotetradecaphane-12-yl)acetamide], the IC50 (in test [1]; in test [2]; in the test on hPMBC) was below 100 nM each time.

Turning to `Cc1ccc2cc1CNC(=O)[C@H](CCc1ccccc1)NC(=O)[C@@H](NC(=O)OCc1ccccc1)CCCC(=O)NCCCCO2` [Compound 322, benzyl ((12S,15S)-1^4-methyl-8,13, 16-trioxo-15-phenethyl-2-oxa-7,14,17-triaza-1(1,3)-benzenacyclooctadecaphane-12-yl)carbamate], the results for the IC50 (in test [1]; in test [2]; in the test with hPMBC) were below 100 nM, 1000 to 5000 nM and 500 to 1000 nM, respectively.

Turning to `COC(C(=O)N[C@H]1CC(=O)N2CCCC(CCOc3ccc(C)c(c3)CNC(=O)[C@H](CCc3ccccc3)NC1=O)C2)c1ccc(N)cc1` (stereo partly drawn) [Compound 326, 2-(4-aminophenyl)-2-methoxy-N-((9S,12S)-5^4-methyl-8,11,14-trioxo-9-phenethyl-4-oxa-7,10-diaza-1(3,1)-piperidina-5(1,3)-benzenacyclotetradecaphane-12-yl)acetamide], the IC50 (in test [1]; in test [2]; in the test with hPMBC) was below 100 nM in each case.
